Source: patent US9023789B2, “Amylin analogs and pharmaceutical compositions thereof” (Novo Nordisk A/S, priority 2012, dated 2015)
Read-outs that look alike come from different tables or passages of the source. Numbered stars: 1 amine (or outer) side, 2 acyl side, 3 side chain; on linkers, the order of the positions; unused ones are H or OH. Bridge positions count the residues as written; N and C are the ends. Side chains are listed from the residue outwards. Peptide text beside a SMILES is read from it. * marks the point of attachment. C20 diacid = O=C(O)CCCCCCCCCCCCCCCCCCC(=O)*; γGlu = O=C(O)[C@H](CCC(=O)[*:2])N[*:1]

Columns and labels:
[1] = molecular target: T1, rat amylin receptor (rat calcitonin receptor + rat RAMP 3) (Rattus norvegicus, UniProt P32214+Q9JJ73); assay: ASSAY (VI) binding to the rat amylin receptor
T1 construct: expressed in transfected cells; host or cells: BHK tk'ts 13 (transient, FuGENE 6), membranes
T1 sequence (P32214 25-479 isoform P32214-2 limits assumed): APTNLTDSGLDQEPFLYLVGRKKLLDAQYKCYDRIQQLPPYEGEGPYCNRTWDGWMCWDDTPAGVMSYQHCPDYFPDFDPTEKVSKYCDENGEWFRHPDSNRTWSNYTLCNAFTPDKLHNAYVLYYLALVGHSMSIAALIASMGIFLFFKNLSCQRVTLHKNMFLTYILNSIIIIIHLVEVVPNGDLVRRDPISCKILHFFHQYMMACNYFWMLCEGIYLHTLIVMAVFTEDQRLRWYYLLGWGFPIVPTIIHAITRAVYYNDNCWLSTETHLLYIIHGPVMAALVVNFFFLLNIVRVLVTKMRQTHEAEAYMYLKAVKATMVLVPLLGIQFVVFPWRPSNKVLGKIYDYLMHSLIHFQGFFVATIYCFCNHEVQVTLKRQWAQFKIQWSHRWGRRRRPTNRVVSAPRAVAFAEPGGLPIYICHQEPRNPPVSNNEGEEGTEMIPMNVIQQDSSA
T1 sequence (Q9JJ73 23-147 partner): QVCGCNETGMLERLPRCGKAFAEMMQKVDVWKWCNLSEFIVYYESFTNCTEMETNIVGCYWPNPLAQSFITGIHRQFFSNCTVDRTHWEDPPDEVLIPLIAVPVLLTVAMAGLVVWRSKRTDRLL
Procedure, shortened: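 This assay measured binding to the rat amylin receptor. BHK tk′ts 13 cells were transiently transfected with the rat calcitonin receptor using FuGENE® 6 (Roche), following the manufacturer's recommendations. About 48 hours after transfection, the cells were harvested and membranes were prepared from them for the binding determination.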

[2] = molecular target: T2, human amylin 3(a) receptor (human calcitonin receptor + RAMP-3) in BHK570 cells (Homo sapiens, UniProt O60896+P30988); assay: ASSAY (II)a functional assay, human amylin receptor (CRE luciferase); type: cell-based
T2 construct: expressed in transfected cells
Procedure, shortened: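 Ligand exposure 3 h at 37 °C, 5% CO2 in DMEM with 10% FBS, 10 mM Hepes pH 7.4. cAMP-driven luciferase read by luminescence after 30 min LucLite at room temperature.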

[3] = ASSAY (IV) determination of solubility; type: physicochemical
Procedure, shortened: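 Dissolve polypeptide in water ([…] stock); combine 1:1 with each 100 mM buffer (glycylglycine pH 3.0/4.0/5.0; bistrispropane pH 6.0/6.5/7.0/7.5/8.0); hold 18 hours at room temperature; centrifuge; quantify polypeptide by UPLC.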

rat calcitonin receptor = molecular target: T3, rat calcitonin receptor (Rattus norvegicus, UniProt P32214); assay: ASSAY (VIII) binding to the rat calcitonin receptor; conditions: Table 7, read-out: rCTR bind IC50
T3 construct: expressed in transfected cells; host or cells: BHK tk'ts 13 (transient, FuGENE 6), membranes
T3 sequence (P32214 25-479 isoform P32214-2 limits assumed): T1 sequence (P32214 25-479 isoform P32214-2 limits assumed)
Procedure, shortened: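 Rat calcitonin receptor is expressed transiently in BHK tk′ts 13 cells cultured in DMEM with 10% FBS. Roughly two days (approximately 48 hours) post-transfection, cells are harvested for membrane preparation.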

[4] = molecular target: T4, human amylin receptor (membranes from Amylin 3(a)/CRE-luc cells) (Homo sapiens, UniProt O60896+P30988); assay: ASSAY (V) binding to the human amylin receptor (SPA, 125I-rat amylin);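 note: competition binding of cell membranes (35 ng/µL) mixed with SPA beads in 384-well plates at 40 µL total volume, read by scintillation counting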
T4 construct: expressed in transfected cells
T4 sequence (P30988 25-474): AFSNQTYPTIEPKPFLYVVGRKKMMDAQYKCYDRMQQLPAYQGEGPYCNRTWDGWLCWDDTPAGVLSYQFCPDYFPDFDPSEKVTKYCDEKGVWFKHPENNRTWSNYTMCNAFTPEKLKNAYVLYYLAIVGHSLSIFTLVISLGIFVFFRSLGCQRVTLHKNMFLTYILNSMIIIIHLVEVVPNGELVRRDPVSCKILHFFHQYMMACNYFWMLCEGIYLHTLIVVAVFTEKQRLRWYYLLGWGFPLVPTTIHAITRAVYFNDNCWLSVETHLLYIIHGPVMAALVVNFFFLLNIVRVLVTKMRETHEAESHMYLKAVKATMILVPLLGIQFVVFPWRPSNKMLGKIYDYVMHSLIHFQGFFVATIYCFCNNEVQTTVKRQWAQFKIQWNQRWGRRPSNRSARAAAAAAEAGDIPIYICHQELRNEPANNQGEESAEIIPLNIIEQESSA
T4 sequence (O60896 24-148 partner): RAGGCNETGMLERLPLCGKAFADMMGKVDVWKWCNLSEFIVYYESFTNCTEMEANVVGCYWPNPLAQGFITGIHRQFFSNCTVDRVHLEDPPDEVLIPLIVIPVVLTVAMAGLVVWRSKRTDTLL
Protocol: The binding assay was performed using scintillation proximity assay (SPA) beads (RPNQ0001) from PerkinElmer and cell membranes from the Amylin 3(a)/CRE-luc cells (as described in Assay (II)) were used. Membranes were prepared in the following way; the cells were rinsed with PBS and incubated with Versene for approximately 5 min before harvesting. The cells were flushed with PBS and the cell-suspension was centrifuged for 5 min at 1000 rpm. […] The resulting pellet was resuspended in buffer 2 and protein concentration was measured (BCA protein Assay, Pierce). The homogenate was kept cold during the whole procedure. The membranes were kept at −80° C. until use. The assay was performed in a 384 well Optiplate (PerkinElmer) in a total volume of 40 ul. Membranes were mixed with SPA beads. Final concentration of membranes 35 ng/μL final and SPA beads was 0.05 mg/well. Test-compounds were dissolved in DMSO and further diluted in assay buffer (50 mM Hepes, pH 7.4, 1 mM CaCl2, 5 mM MgCl2, 0.1% OA and 0.02% Tween20). […] Samples were analyzed on TopCounter™ (Packard). The IC50 was calculated using (one site binding competition analysis) GraphPad Prism5 as a measure of receptor affinity.

CC[C@H](C)[C@H](NC(=O)[C@H](C)NC(=O)CNC(=O)[C@H](Cc1ccccc1)NC(=O)[C@H](CC(N)=O)NC(=O)[C@@H]1CCCN1C(=O)[C@H](CO)NC(=O)[C@H](CO)NC(=O)[C@H](Cc1c[nH]cn1)NC(=O)[C@H](CCCNC(=N)N)NC(=O)[C@H](CC(C)C)NC(=O)[C@H](Cc1ccccc1)NC(=O)[C@H](C)NC(=O)[C@H](C)NC(=O)[C@H](CC(C)C)NC(=O)[C@H](CCCNC(=N)N)NC(=O)[C@H](CCC(N)=O)NC(=O)[C@@H](NC(=O)[C@H](C)NC(=O)[C@@H]1CSSC[C@H](NC(=O)[C@@H](N)CCCCNC(=O)CC[C@H](NC(=O)CCCCCCCCCCCCCCCCCCC(=O)O)C(=O)O)C(=O)N[C@@H](CC(N)=O)C(=O)N[C@@H]([C@@H](C)O)C(=O)N[C@@H](C)C(=O)N[C@@H]([C@@H](C)O)C(=O)N1)[C@@H](C)O)C(=O)N1CCC[C@H]1C(=O)N[C@@H](CO)C(=O)N[C@@H](CO)C(=O)N[C@H](C(=O)N[C@@H](CC(N)=O)C(=O)N[C@H](C(=O)NCC(=O)N[C@@H](Cc1c[nH]cn1)C(=O)N[C@@H](CC(N)=O)C(=O)N[C@H](C(=O)N[C@@H](Cc1ccc(O)cc1)C(N)=O)[C@@H](C)O)C(C)C)[C@@H](C)O [Example 93] (H-K([γGlu-C20 diacid])CNTATCATQRLAAFLRHSSPNFGAIPSSTNVGHNTY-NH2; disulfide 2-7; N-terminus assumed)
IC50 ([1]; Table 7, binding to rat amylin receptor, read-out: rAmylin-R bind IC50): 1.58 nM
Ratio rCT/rAmylin binding ([1]; Table 7, rat binding selectivity, rCTR IC50 / rAmylin-R IC50): 83.2
Ratio rCT/rAmylin binding ([1]; Table 7a (preferred compounds), rat binding selectivity, rCTR IC50 / rAmylin-R IC50): 83.2
Ratio rCT/rAmylin binding ([1]; ratio of rCTR bind IC50 to rAmylin-R bind IC50): 83.2
Ratio hCT/hAmylin funct. ([2]; hCTR funct. EC50 divided by hAmylin-R funct. EC50): 9.7
Ratio hCT/hAmylin funct. ([2]; hCTR funct. EC50 over hAmylin-R funct. EC50): 9.7
Ratio hCT/hAmylin funct. ([2]; human functional selectivity: hCTR funct. EC50 / hAmylin-R funct. EC50): 9.7
solubility at 18 h ([3]; bistrispropane buffer, pH 6.5, read-out: Solubility pH 6.5 Concentration): ≥ 200 µM
solubility at 18 h ([3]; bistrispropane buffer, pH 7.5, read-out: Solubility pH 7.5 Concentration): ≥ 200 µM
solubility at 18 h ([3]; bistrispropane buffer, pH 6.0, read-out: Solubility pH 6.0 Concentration): ≥ 200 µM
solubility at 18 h ([3]; bistrispropane buffer, pH 7.0, read-out: Solubility pH 7.0 Concentration): ≥ 200 µM
solubility at 18 h ([3]; bistrispropane buffer, pH 8.0, read-out: Solubility pH 8.0 Concentration): ≥ 200 µM
solubility at 18 h ([3]; glycylglycine buffer, pH 3.0, read-out: Solubility pH 3.0 Concentration): ≥ 200 µM
solubility at 18 h ([3]; glycylglycine buffer, pH 4.0, read-out: Solubility pH 4.0 Concentration): ≥ 200 µM
solubility at 18 h ([3]; glycylglycine buffer, pH 5.0, read-out: Solubility pH 5.0 Concentration): ≥ 200 µM
IC50 (rat calcitonin receptor): 131 nM
Ratio hCT/hAmylin binding ([4]; Table 5, selectivity, hCTR bind IC50 / hAmylin-R bind IC50): 101.0
Ratio hCT/hAmylin binding ([4]; Table 5a, selectivity, hCTR bind IC50 / hAmylin-R bind IC50): 101.0
Ratio hCT/hAmylin binding ([4]; Table 5b, selectivity, hCTR bind IC50 / hAmylin-R bind IC50): 101.0
Ratio hCT/hAmylin binding ([4]; Table 5c, selectivity, hCTR bind IC50 / hAmylin-R bind IC50): 101.0
Ratio hCT/hAmylin binding ([4]; Table 7, human binding selectivity, included for comparison): 101.0
Ratio hCT/hAmylin binding ([4]; Table 7a (preferred compounds), human binding selectivity, included for comparison): 101.0
Ratio hCT/hAmylin binding ([4]; ratio of human calcitonin receptor binding IC50 to human amylin receptor binding IC50): 101.0
